Experimental data: patent US8216975B2, “Method of labelling soya varieties” (priority 2004, dated 2012)

Assays:
soybean varieties = assay: Greenhouse pot test: soybean varieties sown in soil treated with HPPD inhibitor, ED20 and factor versus reference variety; format: in vivo, Glycine max
Method: Test Method for the Selection of Suitable Soybean Varieties: Categorisation of the Soybean Varieties According to Their Sensitivity to HPPD Herbicide Residues and Comparison with Sensitive and Non-Sensitive Soybean Varieties:
• 1. A non-sterilised soil is treated with the HPPD inhibitor being tested. The HPPD inhibitor being tested is applied in concentrations of 0, 20, 40 and 80 ppb and incorporated homogeneously into the soil. The soil so treated is then introduced into pots (2⅝ inch×2⅝ inch×3½ inch) and lightly firmed. • 2. Sowing: The soybean varieties being tested are sown in the pots treated as described above as follows: 3 seed grains are used per pot, the seeds being pressed lightly into the soil (under the surface of the soil) and covered over with soil. In each test, varieties having known sensitivity are also tested as reference. These are the soybean varieties NK S40-R9 and Pioneer P94B01. Shortly after germination, the plants are thinned out to two plants per pot. The plants receive an optimum supply of water and nutrients and are kept in a greenhouse at 20-24° C., with 16 hours exposure to light per day. • 3. 3-4 Weeks after sowing, the condition of the plants is evaluated visually. Symptoms of damage to the plants, such as chlorosis, bleaching and growth inhibition (‘stunting’), are assessed and compared with an untreated soya plant of the same variety. • 4. Calculation: The repetitions are combined and a linear regression analysis is carried out with non-transformed data. ED20 values (=effective dose at which damage is 20% in comparison with the untreated control) are calculated from the regression curve for each variety. The soybeans are grouped according to whether they are “sensitive” or “tolerant” by comparing the ED20 values of the test varieties with those of the standard varieties, that is to say by determining a factor with respect to the reference variety.

[1] = test system: soya varieties S40R-9 and S24-K4; assay: Field carry-over test: phytotoxicity to soya grown as subsequent crop to maize treated with HPPD herbicide; format: in vivo, Glycine max
Description: Biological Test Method for the Selection of Suitable Sensitive Reference Soybean Varieties in the Field:
• a) Compound No. 2.13 according to Table 2 below was applied pre- or post-emergence to maize in three repetitions in a field in the vicinity of Ames, Iowa, USA, under practical conditions at a suitable time (pre-emergence April-May; post-emergence May-June) in a field trial using concentrations of 100, 200 and 400 g a.i./ha. Application of fertilizer, pest control and other cultivation measures were carried out in accordance with the standards customary in agriculture. Because not all weeds were controlled by the test herbicides, the test plots were kept weed-free over the entire vegetation period by the application of non-soil-active herbicides. • b) The plots were harvested and labeled in the autumn. At the customary time in […] (April/May) of the following year, the soybeans to be tested were sown in the labeled plots from the previous year and the condition of the plants on reaching the different physiological growth stages was evaluated (see Table 1). • c) The evaluation was carried out in % general phytotoxicity, which records any effects such as growth inhibition, bleaching, chlorosis, scorching or thinning. 0-4% phytotoxicity is acceptable, >4% is not acceptable under practical field conditions.
Tables A and B: Phytotoxicity of the soya varieties S40R-9 and S24-K4 as a subsequent crop to maize in which weed control has been carried out using the herbicide of formula 2.13. The herbicide was applied in an amount of 400 g/ha; in Table B an oil adjuvant (Agridex) was additionally used in an amount of 1.25% by volume.

SMILES: CS(=O)(=O)c1ccc(C(=O)C2C(=O)CCCC2=O)c([N+](=O)[O-])c1 [2.04, reference compound]
- Factor with respect to reference variety NK S40-R9, based on ED20 values (soybean varieties; Table D, soya variety S21-H7 STS): 3.45
- Factor with respect to reference variety NK S40-R9, based on ED20 values (soybean varieties; Table D, soya variety S34-A9 STS): 4.56
- Factor with respect to reference variety NK S40-R9, based on ED20 values (soybean varieties; Table D, soya variety S40-R9 (reference variety)): 1.0

SMILES: COCCOCc1nc(C(F)(F)F)ccc1C(=O)C1=C(O)C2CCC(C2)C1=O (stereo not drawn) [Compound No. 2.13]
- % Phytotoxicity (mean value) ([1]; Table A, soya variety NK S40-R9, 400 g/ha on maize, 29 days after sowing, 404 days after herbicide application, BBCH12/BBCH13): 6.67%
- % Phytotoxicity (mean value) ([1]; Table A, soya variety NK S40-R9, 400 g/ha on maize, 42 days after sowing, 417 days after herbicide application, BBCH14/BBCH14): 13%
- % Phytotoxicity (mean value) ([1]; Table A, soya variety NK S40-R9, 400 g/ha on maize, 56 days after sowing, 431 days after herbicide application, BBCH16/BBCH17): 14.33%
- % Phytotoxicity (mean value) ([1]; Table A, soya variety NK-S24-K4, 400 g/ha on maize, 29 days after sowing, 404 days after herbicide application, BBCH12/BBCH13): 0%
- % Phytotoxicity (mean value) ([1]; Table A, soya variety NK-S24-K4, 400 g/ha on maize, 42 days after sowing, 417 days after herbicide application, BBCH14/BBCH14): 0%
- % Phytotoxicity (mean value) ([1]; Table A, soya variety NK-S24-K4, 400 g/ha on maize, 56 days after sowing, 431 days after herbicide application, BBCH16/BBCH17): 0%
- % Phytotoxicity (mean value) ([1]; Table B, soya variety NK S40-R9, 400 g/ha on maize plus oil adjuvant (Agridex) 1.25% by volume, 29 days after sowing, 404 days after herbicide application, BBCH12/BBCH13): 36.67%
- % Phytotoxicity (mean value) ([1]; Table B, soya variety NK S40-R9, 400 g/ha on maize plus oil adjuvant (Agridex) 1.25% by volume, 42 days after sowing, 417 days after herbicide application, BBCH14/BBCH14): 49.33%
- % Phytotoxicity (mean value) ([1]; Table B, soya variety NK S40-R9, 400 g/ha on maize plus oil adjuvant (Agridex) 1.25% by volume, 56 days after sowing, 431 days after herbicide application, BBCH16/BBCH17): 56.67%
- % Phytotoxicity (mean value) ([1]; Table B, soya variety NK-S24-K4, 400 g/ha on maize plus oil adjuvant (Agridex) 1.25% by volume, 29 days after sowing, 404 days after herbicide application, BBCH12/BBCH13): 5.67%
- % Phytotoxicity (mean value) ([1]; Table B, soya variety NK-S24-K4, 400 g/ha on maize plus oil adjuvant (Agridex) 1.25% by volume, 42 days after sowing, 417 days after herbicide application, BBCH14/BBCH14): 3.33%
- % Phytotoxicity (mean value) ([1]; Table B, soya variety NK-S24-K4, 400 g/ha on maize plus oil adjuvant (Agridex) 1.25% by volume, 56 days after sowing, 431 days after herbicide application, BBCH16/BBCH17): 1.67%
- Factor with respect to reference variety NK S40-R9, based on ED20 values (soybean varieties; soya variety AGI 7370 RR): 1.0
- Factor with respect to reference variety NK S40-R9, based on ED20 values (soybean varieties; soya variety Agripro 2502 RR): 5.3
- Factor with respect to reference variety NK S40-R9, based on ED20 values (soybean varieties; soya variety Agripro 2547 RR/N): 4.7
- Factor with respect to reference variety NK S40-R9, based on ED20 values (soybean varieties; soya variety Agway APK 190): 12.2
- Factor with respect to reference variety NK S40-R9, based on ED20 values (soybean varieties; soya variety Agway APK256 RR): 5.6
- Factor with respect to reference variety NK S40-R9, based on ED20 values (soybean varieties; soya variety Asgrow 1602): 5.4
- Factor with respect to reference variety NK S40-R9, based on ED20 values (soybean varieties; soya variety Asgrow 2105): 6.5
- Factor with respect to reference variety NK S40-R9, based on ED20 values (soybean varieties; soya variety Asgrow 2705): 5.0
- Factor with respect to reference variety NK S40-R9, based on ED20 values (soybean varieties; soya variety Asgrow AG1401 RR): 4.5
- Factor with respect to reference variety NK S40-R9, based on ED20 values (soybean varieties; soya variety Asgrow AG2302): 4.7
- Factor with respect to reference variety NK S40-R9, based on ED20 values (soybean varieties; soya variety Asgrow AG3902): 4.7
- Factor with respect to reference variety NK S40-R9, based on ED20 values (soybean varieties; soya variety Asgrow AG4403): 8.5
- Factor with respect to reference variety NK S40-R9, based on ED20 values (soybean varieties; soya variety Beck's 336NRR): 4.5
- Factor with respect to reference variety NK S40-R9, based on ED20 values (soybean varieties; soya variety Beck's 366NRR): 4.9
- Factor with respect to reference variety NK S40-R9, based on ED20 values (soybean varieties; soya variety D King 4868RR): 4.4
- Factor with respect to reference variety NK S40-R9, based on ED20 values (soybean varieties; soya variety Dekalb DK32-51): 5.3
- Factor with respect to reference variety NK S40-R9, based on ED20 values (soybean varieties; soya variety Dekalb DKB23-51): 5.8
- Factor with respect to reference variety NK S40-R9, based on ED20 values (soybean varieties; soya variety Dekalb DKB36-51): 4.2
- Factor with respect to reference variety NK S40-R9, based on ED20 values (soybean varieties; soya variety Garst 2677 RR): 4.1
- Factor with respect to reference variety NK S40-R9, based on ED20 values (soybean varieties; soya variety Gld H H3505RR): 5.8
- Factor with respect to reference variety NK S40-R9, based on ED20 values (soybean varieties; soya variety Kruger 279 RR): 3.4
- Factor with respect to reference variety NK S40-R9, based on ED20 values (soybean varieties; soya variety Kruger 323 RR): 4.3
- Factor with respect to reference variety NK S40-R9, based on ED20 values (soybean varieties; soya variety MFA RT 3660N): 4.3
- Factor with respect to reference variety NK S40-R9, based on ED20 values (soybean varieties; soya variety Mustang M-222RR): 0.8
- Factor with respect to reference variety NK S40-R9, based on ED20 values (soybean varieties; soya variety NK S24-K4): 3.6
- Factor with respect to reference variety NK S40-R9, based on ED20 values (soybean varieties; soya variety NK S35-A6): 5.3
- Factor with respect to reference variety NK S40-R9, based on ED20 values (soybean varieties; soya variety NK S40-R9 (reference variety)): 1.0
- Factor with respect to reference variety NK S40-R9, based on ED20 values (soybean varieties; soya variety NK S46-W8): 0.5
- Factor with respect to reference variety NK S40-R9, based on ED20 values (soybean varieties; soya variety Pioneer 90B51): 1.1
- Factor with respect to reference variety NK S40-R9, based on ED20 values (soybean varieties; soya variety Pioneer 91B33): 4.9
- Factor with respect to reference variety NK S40-R9, based on ED20 values (soybean varieties; soya variety Pioneer 91B91): 3.0
- Factor with respect to reference variety NK S40-R9, based on ED20 values (soybean varieties; soya variety Pioneer 93B67): 1.1
- Factor with respect to reference variety NK S40-R9, based on ED20 values (soybean varieties; soya variety Pioneer 94B01): 0.8
- Factor with respect to reference variety NK S40-R9, based on ED20 values (soybean varieties; soya variety Pioneer 94B54): 1.6
- Factor with respect to reference variety NK S40-R9, based on ED20 values (soybean varieties; soya variety Pioneer 9492): 1.0
- Factor with respect to reference variety NK S40-R9, based on ED20 values (soybean varieties; soya variety Pioneer P92B38): 4.3
- Factor with respect to reference variety NK S40-R9, based on ED20 values (soybean varieties; soya variety S21-H7 STS): 5.03
- Factor with respect to reference variety NK S40-R9, based on ED20 values (soybean varieties; soya variety S34-A9 STS): 8.0
- Factor with respect to reference variety NK S40-R9, based on ED20 values (soybean varieties; soya variety S. Grow SG948RR): 1.2
